Assays:
CDK1/Cyclin B1 = CDK1/Cyclin B1 (Homo sapiens (Human), UniProt P06493); test: CDK1/Cyclin B1 ADP-Glo Kinase Assay; assay type: biochemical; settings: ADP-Glo, 80 uM ATP; read-out: CDK1 Cyclin B1 IC50
Procedure, shortened: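 Enzyme and inhibitor pre-incubated 30 min at room temperature before ATP/substrate addition; reaction run 90 min at room temperature. ADP formed measured by ADP-Glo luminescence; IC50 from a 4-parameter fit of fractional velocity versus inhibitor concentration.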

CDK2/Cyclin E1 = CDK2/Cyclin E1 (Homo sapiens (Human), UniProt P24941); test: CDK2/Cyclin E1 Full length ADP-Glo Kinase Assay; assay type: biochemical; settings: 20 uM ATP, read-out: CDK2/ CyclinE1 IC50
Procedure, shortened: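 Full-length human CDK2/cyclin E1 was preincubated 30 min at room temperature with inhibitor, then reacted 90 min with ATP-containing substrate solution. ADP formed was measured by ADP-Glo luminescence; IC50 from 4-parameter fit of fractional velocity versus inhibitor concentration.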

CDK4/Cyclin D1 = CDK4/Cyclin D1 (Homo sapiens (Human), UniProt P11802); test: CDK4/Cyclin D1 CHEF Assay (AQT0258 peptide); assay type: biochemical; settings: 200 uM ATP, read-out: CDK4/ CyclinD1 AQT IC50
CDK4/Cyclin D1, sequence (P11802 whole entry): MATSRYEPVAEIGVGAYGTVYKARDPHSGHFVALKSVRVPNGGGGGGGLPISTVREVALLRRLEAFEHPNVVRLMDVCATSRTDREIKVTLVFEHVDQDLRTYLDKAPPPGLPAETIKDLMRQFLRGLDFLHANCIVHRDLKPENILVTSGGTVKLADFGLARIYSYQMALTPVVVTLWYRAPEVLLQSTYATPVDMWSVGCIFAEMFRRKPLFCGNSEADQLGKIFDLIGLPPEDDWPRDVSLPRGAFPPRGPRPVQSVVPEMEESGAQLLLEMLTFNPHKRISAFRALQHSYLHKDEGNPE
CDK4/Cyclin D1, sequence (P24385 whole entry partner): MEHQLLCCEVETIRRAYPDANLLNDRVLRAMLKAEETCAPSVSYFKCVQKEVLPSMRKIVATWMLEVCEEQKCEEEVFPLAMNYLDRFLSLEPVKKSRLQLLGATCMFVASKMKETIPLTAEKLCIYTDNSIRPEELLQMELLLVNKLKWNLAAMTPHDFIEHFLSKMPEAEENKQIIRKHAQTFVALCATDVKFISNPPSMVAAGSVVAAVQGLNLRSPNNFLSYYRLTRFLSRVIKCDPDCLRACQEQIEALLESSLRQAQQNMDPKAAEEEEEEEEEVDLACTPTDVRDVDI
Procedure, shortened: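 Sox-labelled peptide AQT0258 phosphorylation read as chelation-enhanced fluorescence (ex 360/em 485 nm) with Mg(II). Enzyme preincubated with inhibitor 30 min at 22°C, substrate added, 3 h at 22°C; IC50 from four-parameter fit of fractional velocity versus inhibitor concentration.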

CDK6/Cyclin D3 = CDK6/Cyclin D3 (Homo sapiens (Human), UniProt Q00534); test: CDK6/Cyclin D3 ADP-Glo Kinase Assay; assay type: biochemical; settings: 100 uM ATP, read-out: CDK6/ CyclinD3 IC50
CDK6/Cyclin D3, sequence (Q00534 whole entry): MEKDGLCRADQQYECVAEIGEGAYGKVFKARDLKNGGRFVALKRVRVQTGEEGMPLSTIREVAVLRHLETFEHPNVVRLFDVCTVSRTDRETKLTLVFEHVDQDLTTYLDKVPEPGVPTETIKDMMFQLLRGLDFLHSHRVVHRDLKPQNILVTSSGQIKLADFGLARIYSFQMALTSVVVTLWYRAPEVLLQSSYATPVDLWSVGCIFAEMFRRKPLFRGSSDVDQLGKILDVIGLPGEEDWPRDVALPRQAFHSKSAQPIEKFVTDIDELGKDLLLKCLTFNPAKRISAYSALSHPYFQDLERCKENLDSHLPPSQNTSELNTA
CDK6/Cyclin D3, sequence (P30281 whole entry partner): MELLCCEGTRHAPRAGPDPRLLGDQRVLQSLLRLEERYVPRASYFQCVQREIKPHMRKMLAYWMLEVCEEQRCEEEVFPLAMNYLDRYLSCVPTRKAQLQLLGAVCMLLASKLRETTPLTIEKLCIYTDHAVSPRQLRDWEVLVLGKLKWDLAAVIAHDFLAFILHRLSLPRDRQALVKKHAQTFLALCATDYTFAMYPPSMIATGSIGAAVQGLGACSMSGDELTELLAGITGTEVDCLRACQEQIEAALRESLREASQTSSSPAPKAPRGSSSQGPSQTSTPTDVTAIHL
Procedure, shortened: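 Enzyme and inhibitor were pre-incubated for 30 min at room temperature before ATP/substrate was added. The kinase reaction ran 90 min at room temperature, and ADP formed was detected by ADP-Glo luminescence. IC50 was fitted with a 4-parameter equation to fractional velocity versus inhibitor concentration.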

MCF-7 cells = test: Cell Growth Inhibition, MCF-7 (CellTiterGlo, 6 days); assay type: cell-based; settings: Homo sapiens, MCF7, 144 h, MCF-7, 6-day treatment
Procedure, shortened: (§1)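 MCF-7 (ER+ breast adenocarcinoma) or CCNE1-amplified OVCAR-3 cells, 500/well in RPMI with 10% FBS, treated with half-log dilutions typically 10-10,000 nM for 6 days at 37 °C. CellTiterGlo 2.0 luminescence gave % growth inhibition versus control; IC50 by four-parameter variable-slope fit.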

OVCAR-3 cells = test: Cell Growth Inhibition, OVCAR-3 (CellTiterGlo, 6 days); assay type: cell-based; settings: Homo sapiens, 144 h, OVCAR-3, 6-day treatment
Procedure, shortened: as §1

CDK1/Cyclin B1, sequence (P06493 whole entry): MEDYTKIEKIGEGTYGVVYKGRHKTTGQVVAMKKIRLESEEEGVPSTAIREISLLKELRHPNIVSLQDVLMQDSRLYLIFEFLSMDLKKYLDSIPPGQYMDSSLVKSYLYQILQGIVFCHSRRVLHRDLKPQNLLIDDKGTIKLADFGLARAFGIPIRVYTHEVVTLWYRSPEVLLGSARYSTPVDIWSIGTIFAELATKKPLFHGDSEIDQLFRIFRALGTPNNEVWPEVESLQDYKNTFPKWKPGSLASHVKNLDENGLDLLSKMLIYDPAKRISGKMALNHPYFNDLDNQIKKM
CDK1/Cyclin B1, sequence (P14635 whole entry partner): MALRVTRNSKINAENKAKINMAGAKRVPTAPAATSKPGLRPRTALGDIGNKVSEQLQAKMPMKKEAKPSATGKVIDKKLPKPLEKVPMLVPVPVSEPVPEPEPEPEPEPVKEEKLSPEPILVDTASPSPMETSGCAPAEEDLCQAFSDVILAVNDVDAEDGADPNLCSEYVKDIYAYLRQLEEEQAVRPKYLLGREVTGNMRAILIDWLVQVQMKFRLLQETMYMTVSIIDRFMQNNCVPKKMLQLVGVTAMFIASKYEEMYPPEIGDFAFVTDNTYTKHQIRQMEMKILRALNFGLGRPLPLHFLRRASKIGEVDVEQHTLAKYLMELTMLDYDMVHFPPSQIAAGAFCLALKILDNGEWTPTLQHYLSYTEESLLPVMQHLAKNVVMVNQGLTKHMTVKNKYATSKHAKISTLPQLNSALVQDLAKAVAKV

For `Cc1cc2cnc(NC3CCN(S(C)(=O)=O)CC3)nc2c(N2CC3(C2)CC(C)(O)C3)n1` [Compound 79, 6-methyl-2-(6-methyl-2-((1-(methylsulfonyl)piperidin-4-yl)amino)pyrido[3,4-d]pyrimidin-8-yl)-2-azaspiro[3.3]heptan-6-ol], the IC50 (CDK1/Cyclin B1) was 200 to 500 nM, the IC50 (CDK2/Cyclin E1) was < 200 nM and the IC50 (CDK4/Cyclin D1) was < 200 nM. The IC50 (CDK6/Cyclin D3) was 200 to 500 nM, the IC50 (MCF-7 cells) was > 2000 nM and the IC50 (OVCAR-3 cells) was 500 to 2000 nM.
`Cc1cc2cnc(NC3CCN(S(=O)(=O)CC4CCCC4)CC3)nc2c(N2CC3(CCNC3)C2)n1` [Example 51, N-(1-((cyclopentylmethyl)sulfonyl)piperidin-4-yl)-6-methyl-8-(2,6-diazaspiro[3.4]octan-2-yl)pyrido[3,4-d]pyrimidin-2-amine] was tested, and the IC50 (CDK1/Cyclin B1) was 500 to 2000 nM, the IC50 (CDK2/Cyclin E1) was < 200 nM and the IC50 (CDK4/Cyclin D1) was < 200 nM. The IC50 (CDK6/Cyclin D3) was 200 to 500 nM, the IC50 (MCF-7 cells) was 500 to 2000 nM and the IC50 (OVCAR-3 cells) was 500 to 2000 nM.
For `Cc1cc2cnc(NC3CCN(S(C)(=O)=O)CC3)nc2c(N2CCC3(CCC3(F)F)C2)n1` (stereo not drawn) [Compound 52, 8-(1,1-difluoro-6-azaspiro[3.4]octan-6-yl)-6-methyl-N-(1-(methylsulfonyl)piperidin-4-yl)pyrido[3,4-d]pyrimidin-2-amine], the IC50 (CDK1/Cyclin B1) was < 200 nM, the IC50 (CDK2/Cyclin E1) was < 200 nM and the IC50 (CDK4/Cyclin D1) was < 200 nM. The IC50 (CDK6/Cyclin D3) was < 200 nM, the IC50 (MCF-7 cells) was > 2000 nM and the IC50 (OVCAR-3 cells) was 500 to 2000 nM.
`Cc1cc2cnc(Nc3cnn(CC4(N(C)C)CC4)c3)nc2c(N2CCC(C#N)(C3CC3)C2)n1` (stereo not drawn) [Compound 38, 3-cyclopropyl-1-(2-((1-((1-(dimethylamino)cyclopropyl)methyl)-1H-pyrazol-4-yl)amino)-6-methylpyrido[3,4-d]pyrimidin-8-yl)pyrrolidine-3-carbonitrile] was tested, and the IC50 (CDK1/Cyclin B1) was > 2000 nM, the IC50 (CDK2/Cyclin E1) was < 200 nM and the IC50 (CDK4/Cyclin D1) was 500 to 2000 nM. For the same compound, the IC50 (CDK6/Cyclin D3) was > 2000 nM, the IC50 (MCF-7 cells) was > 2000 nM and the IC50 (OVCAR-3 cells) was 500 to 2000 nM.
`O=S(=O)(CC1CCC1)N1CCC(Nc2ncc3cc(C(F)F)nc(N4CC5(CCNC5)C4)c3n2)CC1` [Compound 55, N-(1-((cyclobutylmethyl)sulfonyl)piperidin-4-yl)-6-(difluoromethyl)-8-(2,6-diazaspiro[3.4]octan-2-yl)pyrido[3,4-d]pyrimidin-2-amine] was tested, and the IC50 (CDK1/Cyclin B1) was < 200 nM, the IC50 (CDK2/Cyclin E1) was < 200 nM and the IC50 (CDK4/Cyclin D1) was < 200 nM. For the same compound, the IC50 (CDK6/Cyclin D3) was < 200 nM, the IC50 (MCF-7 cells) was 200 to 500 nM and the IC50 (OVCAR-3 cells) was 500 to 2000 nM.
In the case of `Cc1cc2cnc(NC3CCN(S(=O)(=O)C4CC4)CC3)nc2c(N2CC(OC3CC3)C2)n1` [Compound 57, 8-(3-cyclopropoxyazetidin-1-yl)-N-(1-(cyclopropylsulfonyl)piperidin-4-yl)-6-methylpyrido[3,4-d]pyrimidin-2-amine], the IC50 (CDK1/Cyclin B1) is reported as 200 to 500 nM, the IC50 (CDK2/Cyclin E1) is reported as < 200 nM and the IC50 (CDK4/Cyclin D1) is reported as < 200 nM. The IC50 (CDK6/Cyclin D3) was < 200 nM, the IC50 (MCF-7 cells) was > 2000 nM and the IC50 (OVCAR-3 cells) was > 2000 nM.
For `Cc1cc2cnc(Nc3ccc4c(c3)CN(C3CN(S(C)(=O)=O)C3)C4)nc2c(N2CC3(CN(C)C3)C2)n1` [Compound 29, 6-methyl-8-(6-methyl-2,6-diazaspiro[3.3]heptan-2-yl)-N-(2-(1-(methylsulfonyl)azetidin-3-yl)isoindolin-5-yl)pyrido[3,4-d]pyrimidin-2-amine], the IC50 (CDK1/Cyclin B1) was > 2000 nM, the IC50 (CDK2/Cyclin E1) was 200 to 500 nM and the IC50 (CDK4/Cyclin D1) was < 200 nM. The IC50 (CDK6/Cyclin D3) was 500 to 2000 nM, the IC50 (MCF-7 cells) was > 2000 nM and the IC50 (OVCAR-3 cells) was > 2000 nM.
With `Cc1cc2cnc(NC3CC4CC3CN4C)nc2c(N2CCC3(C2)CC3(F)F)n1` (stereo not drawn) [Compound 43, 8-(1,1-difluoro-5-azaspiro[2.4]heptan-5-yl)-6-methyl-N-(2-methyl-2-azabicyclo[2.2.1]heptan-5-yl)pyrido[3,4-d]pyrimidin-2-amine] the IC50 (CDK1/Cyclin B1) was > 2000 nM, the IC50 (CDK2/Cyclin E1) was 500 to 2000 nM and the IC50 (CDK4/Cyclin D1) was < 200 nM. It also gave an IC50 (CDK6/Cyclin D3) of 200 to 500 nM, an IC50 (MCF-7 cells) of 500 to 2000 nM and an IC50 (OVCAR-3 cells) of 500 to 2000 nM.
For `Cc1cc2cnc(Nc3ccc(N4CC5(CN(C)C5)C4)cc3)nc2c(N2CCC3(CCOCC3)C2)n1` [Compound 35, 6-methyl-N-(4-(6-methyl-2,6-diazaspiro[3.3]heptan-2-yl)phenyl)-8-(8-oxa-2-azaspiro[4.5]decan-2-yl)pyrido[3,4-d]pyrimidin-2-amine], the IC50 (CDK1/Cyclin B1) was > 2000 nM, the IC50 (CDK2/Cyclin E1) was 200 to 500 nM and the IC50 (CDK4/Cyclin D1) was < 200 nM. For the same compound, the IC50 (CDK6/Cyclin D3) was < 200 nM, the IC50 (MCF-7 cells) was 500 to 2000 nM and the IC50 (OVCAR-3 cells) was 500 to 2000 nM.
`Cc1cc2cnc(N[C@H]3CC[C@@H](CN(C)C)CC3)nc2c(N2CCC3(C2)CC3(F)F)n1` (stereo partly drawn) [Compound 45, 8-(1,1-difluoro-5-azaspiro[2.4]heptan-5-yl)-N-((1s,4s)-4-((dimethylamino)methyl)cyclohexyl)-6-methylpyrido[3,4-d]pyrimidin-2-amine] was tested, and the IC50 (CDK1/Cyclin B1) was 1 nM, the IC50 (CDK2/Cyclin E1) was > 2000 nM and the IC50 (CDK4/Cyclin D1) was < 200 nM. For the same compound, the IC50 (CDK6/Cyclin D3) was 500 to 2000 nM, the IC50 (MCF-7 cells) was > 2000 nM and the IC50 (OVCAR-3 cells) was > 2000 nM.
`Cc1cc2cnc(NC3CCN(S(=O)(=O)C4CC4)CC3)nc2c(N2CC(O)(C3CC3)C2)n1` [Compound 56, 3-cyclopropyl-1-(2-((1-(cyclopropylsulfonyl)piperidin-4-yl)amino)-6-methylpyrido[3,4-d]pyrimidin-8-yl)azetidin-3-ol] was tested, and the IC50 (CDK1/Cyclin B1) was < 200 nM, the IC50 (CDK2/Cyclin E1) was < 200 nM and the IC50 (CDK4/Cyclin D1) was < 200 nM. The IC50 (CDK6/Cyclin D3) was < 200 nM, the IC50 (MCF-7 cells) was 500 to 2000 nM and the IC50 (OVCAR-3 cells) was 500 to 2000 nM.
In the case of `COC1CC2(C1)CN(c1nc(C3CC3)cc3cnc(NC4CCN(S(C)(=O)=O)CC4)nc13)C2` [Compound 75, 6-cyclopropyl-8-(6-methoxy-2-azaspiro[3.3]heptan-2-yl)-N-(1-(methylsulfonyl)piperidin-4-yl)pyrido[3,4-d]pyrimidin-2-amine], the IC50 (CDK1/Cyclin B1) is reported as > 2000 nM, the IC50 (CDK2/Cyclin E1) is reported as < 200 nM and the IC50 (CDK4/Cyclin D1) is reported as < 200 nM. For the same compound, the IC50 (CDK6/Cyclin D3) was < 200 nM, the IC50 (MCF-7 cells) was > 2000 nM and the IC50 (OVCAR-3 cells) was > 2000 nM.
In the case of `Cc1cc2cnc(NC3CCN(S(=O)(=O)CCC4(C)CC4)CC3)nc2c(N2CC(F)(F)C3(CNC3)C2)n1` [Compound 67, 8-(8,8-difluoro-2,6-diazaspiro[3.4]octan-6-yl)-6-methyl-N-(1-((2-(1-methylcyclopropyl)ethyl)sulfonyl)piperidin-4-yl)pyrido[3,4-d]pyrimidin-2-amine], the IC50 (CDK1/Cyclin B1) is reported as 200 to 500 nM, the IC50 (CDK2/Cyclin E1) is reported as < 200 nM and the IC50 (CDK4/Cyclin D1) is reported as < 200 nM. The IC50 (CDK6/Cyclin D3) was 200 to 500 nM, the IC50 (MCF-7 cells) was > 2000 nM and the IC50 (OVCAR-3 cells) was > 2000 nM.
With `CN1Cc2ccc(Nc3ncc4ccnc(N5CCC6(CCN(S(C)(=O)=O)C6)C5)c4n3)cc2C1` (stereo not drawn) [Compound 23, N-(2-methylisoindolin-5-yl)-8-(7-(methylsulfonyl)-2,7-diazaspiro[4.4]nonan-2-yl)pyrido[3,4-d]pyrimidin-2-amine] the IC50 (CDK1/Cyclin B1) was 500 to 2000 nM, the IC50 (CDK2/Cyclin E1) was < 200 nM and the IC50 (CDK4/Cyclin D1) was < 200 nM. For the same compound, the IC50 (CDK6/Cyclin D3) was < 200 nM, the IC50 (MCF-7 cells) was < 200 nM and the IC50 (OVCAR-3 cells) was < 200 nM.
